Experimental findings from patent US20250090627A1, “NUTRITIONAL POLYPEPTIDE HAVING BRANCHED-STRUCTURE WITH EFFICIENT BROAD-SPECTRUM ANTIBACTERIAL AND ANTIFUNGAL FUNCTIONS” (ZHEJIANG UNIVERSITY, priority 2022, published 2025) are described below.

Data set [1] relates to methicillin-resistant Staphylococcus aureus. As to the kind of experiment: antibacterial effect against drug-resistant bacteria. It is filed as cell-based. The note with it: 100 μg/mL. The procedure:
The above polypeptide (prepared by Method 1) was added in methicillin-resistant Staphylococcus aureus solutions at concentrations of 10^8 and 10^9 CFU/mL respectively according to the polypeptide concentration gradient, and then co-cultured at 37° C. for 24 hours. The polypeptide was effective in killing methicillin-resistant Staphylococcus aureus in the effective concentration range. The antimicrobial rate of 100 μg/mL of polypeptide solution could reach up to 100% (FIG. 2) and 98% or more (FIG. 3) respectively.

Data set [2] deals with Pseudomonas aeruginosa. As to the kind of experiment: antibacterial effect, polypeptide co-cultured with microbe. In kind it is cell-based. The note with it: polypeptide 250 μg/mL; 10^8 CFU/mL; co-cultured at 37° C. for 24 hours.
Data set [3] concerns Staphylococcus aureus. The description is as above. It is filed as cell-based. The note with it: polypeptide 250 μg/mL; 10^8 CFU/mL; co-cultured at 37° C. for 24 hours.
Data set [4] deals with Escherichia coli. The data set is described as above. In kind it is cell-based. The settings on record: polypeptide 250 μg/mL; 10^8 CFU/mL; co-cultured at 37° C. for 24 hours.
The subject of data set [5] is Candida albicans. Described as above. In kind it is cell-based. The settings on record: polypeptide 250 μg/mL; 10^8 CFU/mL; co-cultured at 37° C. for 24 hours.
The test system of data set [6] is rats. Description: in vivo hemocompatibility after caudal vein injection, blood routine examination. The procedure:
(§1) The polypeptide (prepared by Method 1) of the present disclosure was dissolved in physiological saline at a concentration of 1 mg/mL and injected into rats through the caudal vein at a dose of 8 mg/kg.

Data set [7] concerns rats. As to the kind of experiment: safety (acute systemic inflammation) after caudal vein injection, blood routine examination. It is filed as in vivo. The procedure:
as §1

In data set [8] the test system is fibroblasts. Description: cell viability of fibroblasts, Cell Counting Kit-8. In kind it is cell-based. The settings on record: DMEM with 10% fetal bovine serum, 48 h, effective concentration range (FIG. 4). The procedure: The polypeptide (prepared by Method 2) of the disclosure was added at different concentrations to Dulbecco's Modified Eagle's Medium (DMEM) containing fetal bovine serum (10% by volume) and used to culture fibroblasts. Cells were seeded at 10,000 cells per well in 96-well plates, incubated at 37° C. with a medium containing polypeptides at various concentrations as described above, and the cell viability was determined after 48 h using the Cell Counting Kit-8 method.
In general terms: Formazan colour is commonly taken as a measure of viable cells.

Where [9] appears, read: MRSA 10^8 CFU/mL, 37° C. 24 hours (FIG. 2).
[10] abbreviates: MRSA 10^9 CFU/mL, 37° C. 24 hours (FIG. 3).
Where [11] appears, read: 1 mg/mL in physiological saline, caudal vein, 8 mg/kg, 24 h.
Where [12] appears, read: rat blood 24 h after 8 mg/kg caudal vein injection.
Where [13] appears, read: rat blood, 24 h after 8 mg/kg caudal vein injection (FIG. 5).

`CC1(C)S[C@@H]2[C@H](NC(=O)Cc3ccccc3)C(=O)N2[C@H]1C(=O)O` [penicillin G, reference compound]: the antimicrobial rate entry in data set [1] (setting [9]) and in data set [1] (setting [10]) was “less than 10%” each time.
For the compound “hyperbranched polylysine [polypeptide (prepared by Method 1)]”, in data set [2], the antibacterial effect was 100%. Moreover, the antibacterial effect in data set [3] came to 100%. The compound further gave an antibacterial effect in data set [4] of 100%. In data set [1] (setting [9]), this compound registered an antimicrobial rate of 100%. Moreover, the antimicrobial rate in data set [1] (setting [10]) is recorded as at least 98%. Moreover, the antibacterial effect in data set [5] is 100%. In data set [6] (setting [11]), the behavior of rats entry was “no abnormal behavior” and the survival of rats entry is “survived”. Besides, in data set [6] (setting [12]), the “concentration of hemoglobin (HGB), in words” value is “in the normal range”; the “concentration of platelet (PLT), in words” value was “in the normal range”; the “concentration of red blood cell (RBC), in words” value is reported as “in the normal range”. Moreover, the “Red blood cell concentration” value in data set [6] (rat blood 24 h after injection at 1 mg/mL (8 mg/kg), normal range 6.36-9.42) was 6.3 ± 0.3 10^12/L. Besides, the Hemoglobin content in data set [6] (rat blood 24 h after injection at 1 mg/mL (8 mg/kg), normal range 110-143) is recorded as 141.8 ± 10.1 g/L. Moreover, in data set [6] (rat blood 24 h after injection at 1 mg/mL (8 mg/kg), normal range 450-1590), the Platelet concentration is reported as 847.0 ± 140.1 10^9/L. Moreover, the behavior of rats result in data set [7] (setting [11]) is reported as “no abnormal behavior”. For the same compound, in data set [7] (1 mg/mL in physiological saline, caudal vein, 8 mg/kg, after 24 h), the survival of rats result is on record as “still alive”. Moreover, in data set [7] (rat blood routine examination, 24 h after 8 mg/kg caudal vein injection), the inflammatory features result is on record as “no inflammatory features”. In data set [7] (setting [13]), the “cell concentration of lymphocytes (Lym)” value is reported as “in the normal range”, the “cell concentration of monocytes (Mon)” value is “in the normal range”, the “cell concentration of neutrophils (Neu)” value is “in the normal range” and the “cell concentration of white blood cells (WBC)” value is listed as “in the normal range”.
With “hyperbranched polylysine [polypeptide (prepared by Method 2)]”, the “cytotoxicity (cell viability)” value in data set [8] is listed as “not cytotoxic”.
